This is an account of results in patent publication US9629856B2, “Compositions and methods for the treatment of skin diseases and disorders using antimicrobial peptide sequestering compounds” (Anteis SA, priority 2010, dated 2017).

The subject of the series is Rosacea patients. The series is described as follows: Clinical study with rosacea patients. The conditions noted are these: human, in vivo.

Procedure: The following assessments or evaluations were performed before the treatment (Visit 1) and during the treatment period after about 2 weeks (Visit 2), about 4 weeks (Visit 3) and about 8 weeks (Visit 4): Tolerability including burning/stinging/tingling, pruritis, dryness, scaling/peeling and atrophy were evaluated of the face by the investigator (i.e., dermatologist) according to the following scale: 0=none, 1=mild, 2=moderate, 3=severe. Furthermore, any adverse events experienced by subject during the study period, whether related to the treatment or not, were recorded. Assessment of overall skin conditions of the face was performed by the investigator (i.e., dermatologist) according to the following scoring system: [table] Count of total number of inflammatory lesions (papules and pustules) on the face by the investigator (i.e., dermatologist). Evaluation of the severity of both redness/erythema and telangiectasia on the face by the investigator (i.e., dermatologist) according to the following scale: [table] […] Clinical photographs were taken at all visits utilizing standardized conditions for all subjects. […] In case possible, cross-polarized, parallel-polarized and visible light images were acquired along with both blue fluorescence and ultraviolet fluorescence images.

For the substance “Hydroxypropyl Starch Phosphate [Structure XL]”, the immunotoxic effects entry was “no evidence of immunotoxic effects”.
